Reference: patent publication US20230088774A1, “Herbicide Combinations Comprising Glufosinate and Oxadiazon” (BASF SE, priority 2020, published 2023)

Legend:
Details in all cases: 504 h
[1] = system: Amaranthus tamariscinus (AMATA); assay: Greenhouse post-emergence weed control, common waterhemp; assay type: in vivo
Text: (§1) For post-emergence treatments, glufosinate and oxadiazon, which had been suspended in water, were applied using spray nozzles providing fine to coarse droplets.
(§2) The herbicide compounds applied in the examples were used as experimental or commercially available solo or premix formulations which have been diluted with tap water to a suitable concentration. Glufosinate was used as a commercial SL formulation containing 280 g ai/l of glufosinate (Liberty 280 SL, BASF). While the PPO herbicide Ronstar Flo containing 380 g ai/l oxadiazon was used (Ronstar Flo, Bayer) formulation.
(§3) The evaluation for plant injury or damage caused by the chemical compositions was carried out using a scale from 0-100% when compared with the untreated control plants. Here, 0 means no damage and 100 means complete destruction of the plants.
(§4) 22., E=X+Y−(X*Y/100), where
(§5) X=effect in percent using herbicide A at an application rate of a;
(§6) Y=effect in percent using herbicide B at an application rate of b;
(§7) E=expected effect (in %) of A+B at application rates a+b.
(§8) The value E corresponds to the effect (plant damage or injury) which is to be expected if the activity of the individual compounds is just additive. If the observed effect is higher than the value E calculated according to Colby, a synergistic effect is present. […]

[2] = system: Echinochloa crus-galli (ECHCG); assay: Greenhouse post-emergence weed control, barnyardgrass; assay type: in vivo
Text: as §1, §2, §3, §4, §5, §6, §7, §8

[3] = system: Amaranthus Palmerii (AMAPA); assay: Greenhouse post-emergence weed control, Palmer amaranth; assay type: in vivo, Amaranthus palmeri
Text: as §1, §2, §3, §4, §5, §6, §7, §8

[4] = system: Lolium multiflorum (LOLMU); assay: Greenhouse post-emergence weed control, Italian ryegrass; assay type: in vivo
Text: as §1, §2, §3, §4, §5, §6, §7, §8

[5] = post-emergence, read-out: Solo Glufosinate % activity

Structure (SMILES) | inhibition at 327 g/ha [1, 5] [%] | inhibition at 327 g/ha [2, 5] [%] | inhibition at 327 g/ha [3, 5] [%] | inhibition at 327 g/ha [4, 5] [%] | inhibition at 0.8 g/ha ([1]; AMATA, 0.8 g ai/ha post-emergence, 1% (v/v) MSO, 21 DAT, scale 0-100% injury, read-out: Solo Oxadiazon % activity) [%] | inhibition at 0.8 g/ha ([2]; ECHCG, 0.8 g ai/ha post-emergence, 1% (v/v) MSO, 21 DAT, scale 0-100% injury, read-out: Solo Oxadiazon % activity) [%] | inhibition at 0.8 g/ha ([3]; AMAPA, 0.8 g ai/ha post-emergence, 1% (v/v) MSO, 21 DAT, scale 0-100% injury, read-out: Solo Oxadiazon % activity) [%] | inhibition at 0.8 g/ha ([4]; LOLMU, 0.8 g ai/ha post-emergence, 1% (v/v) MSO, 21 DAT, scale 0-100% injury, read-out: Solo Oxadiazon % activity) [%]
CP(=O)(O)CCC(N)C(=O)O (racemic) [Glufosinate, (2RS)-2-amino-4-[hydroxy(methyl)phosphinoyl]butyric acid] | 93 | 40 | 94 | 33 |  |  |  | 
CC(C)Oc1cc(-n2nc(C(C)(C)C)oc2=O)c(Cl)cc1Cl [Oxadiazon] |  |  |  |  | 28 | 30 | 27 | 28
